Reference: article PMC11930913, “Anticancer, antioxidant and antibacterial potential of L-Glutaminase (Streptomyces roseolus strain ZKB1) capped silver and zinc oxide nanoparticles and its molecular characterization” (Bioresources and Bioprocessing, 2025)

Test system: T1, L-Glutaminase (Streptomyces roseolus strain ZKB1)
T1 construct: gene glsA
Assay: ammonia release by Nessler's reagent, […] nm; Lineweaver-Burk
Assay type: cell-based
Conditions: free enzyme; phosphate buffer pH 7.0; 37 °C; 30 min; 25-100 mM substrate

A Km of 13.9 ± 0.8 mM was found for `NC(=O)CC[C@H](N)C(=O)O` [L-glutamine] in this work.
